Series [1] is described as follows: Inhibition of human recombinant COX-1 using arachidonic acid as substrate preincubated for 10 mins followed by substrate addition and measured after 5 mins by ELISA method. On the technique in general: An ELISA detects its analyte on a solid surface through an enzyme-linked reagent.
Another series deals with COLO 205. The series can be described thus: Antiproliferative activity against human COLO 205 cells incubated for 72 hrs by MTS assay. It counts as functional, cell-based. The note with it: COLO 205, 72 h.
For series [2], the target named is T1, Prostaglandin G/H synthase 1 (Bos taurus, UniProt O62664).
T1 sequence (O62664 whole entry): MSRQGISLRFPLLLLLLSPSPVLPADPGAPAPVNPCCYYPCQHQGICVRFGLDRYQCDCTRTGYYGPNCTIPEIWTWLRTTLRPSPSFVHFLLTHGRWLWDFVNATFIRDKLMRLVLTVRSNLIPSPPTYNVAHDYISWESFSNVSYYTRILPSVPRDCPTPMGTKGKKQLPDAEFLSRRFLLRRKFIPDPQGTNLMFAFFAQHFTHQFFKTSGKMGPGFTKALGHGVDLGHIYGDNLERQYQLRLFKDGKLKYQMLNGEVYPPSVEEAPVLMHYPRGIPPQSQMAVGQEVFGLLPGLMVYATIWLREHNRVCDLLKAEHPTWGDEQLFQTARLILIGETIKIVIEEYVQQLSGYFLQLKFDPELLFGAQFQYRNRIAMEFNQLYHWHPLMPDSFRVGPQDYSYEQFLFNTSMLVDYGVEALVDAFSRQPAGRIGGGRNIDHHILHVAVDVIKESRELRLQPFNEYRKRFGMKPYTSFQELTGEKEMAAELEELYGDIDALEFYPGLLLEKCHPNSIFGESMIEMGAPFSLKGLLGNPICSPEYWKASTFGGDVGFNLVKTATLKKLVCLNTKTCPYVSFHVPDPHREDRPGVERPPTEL
The series can be described thus: Inhibition of bovine COX-1 using arachidonic acid as substrate preincubated for 10 mins followed by substrate addition and measured after 5 mins by ELISA method.

In series [3] the test system is HeLa. Nature of the series: Antiproliferative activity against human HeLa cells by MTS assay. It counts as functional, cell-based. On the technique in general: Tetrazolium assays rely on reduction of a dye to a coloured formazan, in cell work by metabolically active cells.
Series [4] deals with Hep 3B2. The series can be described thus: Antiproliferative activity against human Hep3B cells by MTS assay. It counts as functional, cell-based.
In the next series the test system is Huh-7. The series can be described thus: Antiproliferative activity against human Huh-7 cells incubated for 72 hrs by SRB method. It counts as functional, cell-based. The note with it: Huh-7, 72 h. For orientation: The SRB assay estimates cell density from bound dye.
A further series has as its system HCT-116. Nature of the series: Antiproliferative activity against human HCT-116 cells incubated for 72 hrs by SRB method. Particulars: HCT-116, 72 h. It counts as functional, cell-based.
The test system of series [5] is MCF7. Nature of the series: Antiproliferative activity against human MCF7 cells. It counts as functional, cell-based.
In series [6] the test system is Hep 3B2. The series can be described thus: Antiproliferative activity against human Hep3B cells. It counts as functional, cell-based.
A further series has as its system Caco-2. Nature of the series: Antiproliferative activity against human Caco-2 cells assessed as inhibition of cell growth incubated for 48 hrs by CellTiter 96 Aqueous One Solution Cell Proliferation Assay. It counts as functional, cell-based. Particulars: Caco-2, 48 h.
Series [7] has as its system Hep 3B2. The series can be described thus: cells. Particulars: Homo sapiens, Hep3B, 48 h.
Description: Antiproliferative activity against human Hep3B cells assessed as inhibition of cell growth incubated for 48 hrs by CellTiter 96 Aqueous One Solution Cell Proliferation Assay
Series [8] in a line: Antiproliferative activity against HEK293T cells assessed as inhibition of cell growth incubated for 48 hrs by CellTiter 96 Aqueous One Solution Cell Proliferation Assay. It counts as toxicity, cell-based, HEK-293T. Particulars: human.
The nature of series [9]: Antiproliferative activity against human LX2 cells assessed as inhibition of cell growth incubated for 48 hrs by CellTiter 96 Aqueous One Solution Cell Proliferation Assay. The note with it: LX-2 cells. It counts as toxicity, cell-based.
For series [10], the system named is HeLa. Nature of the series: cells. The note with it: Homo sapiens, 48 h.
Description: Antiproliferative activity against human HeLa cells assessed as inhibition of cell growth incubated for 48 hrs by CellTiter 96 Aqueous One Solution Cell Proliferation Assay
The subject of series [11] is MCF7. The series can be described thus: cells. Particulars: Homo sapiens, MCF7, 48 h.
Description: Antiproliferative activity against human MCF7 cells assessed as inhibition of cell growth incubated for 48 hrs by CellTiter 96 Aqueous One Solution Cell Proliferation Assay
A further series has as its system HepG2. Nature of the series: cells. Particulars: Homo sapiens, HepG2, 48 h.
Series [12] has as its target T2, Prostaglandin G/H synthase 1 (Ovis aries, UniProt P05979).
T2 sequence (P05979 whole entry): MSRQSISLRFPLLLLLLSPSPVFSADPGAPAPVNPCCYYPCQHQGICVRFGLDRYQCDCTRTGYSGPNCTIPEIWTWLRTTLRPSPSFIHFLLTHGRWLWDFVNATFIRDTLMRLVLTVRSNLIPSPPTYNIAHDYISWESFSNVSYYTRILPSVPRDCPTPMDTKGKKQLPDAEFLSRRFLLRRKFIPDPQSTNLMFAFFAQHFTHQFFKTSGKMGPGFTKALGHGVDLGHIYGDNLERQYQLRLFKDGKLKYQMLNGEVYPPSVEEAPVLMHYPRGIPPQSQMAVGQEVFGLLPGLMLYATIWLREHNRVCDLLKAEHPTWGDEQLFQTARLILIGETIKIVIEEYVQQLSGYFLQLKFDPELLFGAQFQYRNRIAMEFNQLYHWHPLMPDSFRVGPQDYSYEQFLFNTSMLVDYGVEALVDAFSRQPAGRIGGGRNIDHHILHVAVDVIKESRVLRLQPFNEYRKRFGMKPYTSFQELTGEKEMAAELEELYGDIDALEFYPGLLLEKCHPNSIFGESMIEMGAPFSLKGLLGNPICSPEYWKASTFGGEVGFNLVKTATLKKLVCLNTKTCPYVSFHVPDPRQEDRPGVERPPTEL
Description: Inhibition of ovine COX-1 by EIA method

Values after ≈ are worked out from the molar mass of the structure shown.

Description for HepG2: Antiproliferative activity against human HepG2 cells assessed as inhibition of cell growth incubated for 48 hrs by CellTiter 96 Aqueous One Solution Cell Proliferation Assay

For the molecule `COc1cccc(-c2nc(C(=O)Nc3ccc(C(F)(F)F)cc3)cs2)c1`, the IC50 came out at 191 nM in series [1], 30800 nM with COLO 205 and 239 nM in series [2].
For `COc1ccc(NC(=O)c2c(-c3ccccc3Cl)noc2C)cc1OC`, the 50% inhibitory concentration (IC50) came to 15.5 µg/mL (≈ 41.5 µM) in the series with HeLa [3] and 24 µg/mL (≈ 64.3 µM) with Hep 3B2 [4].
In the case of `COc1ccc(-c2nc(C(=O)Nc3cc(OC)c(OC)c(OC)c3)cs2)cc1`, the concentration for half-maximal inhibition (IC50) in the series with Huh-7 came out at 17500 nM; in the series on HCT-116 it was 14600 nM.
For `Cc1onc(-c2c(F)cccc2Cl)c1C(=O)Nc1ccc(C(C)(C)C)cc1`, the concentration for half-maximal inhibition (IC50) with MCF7 [5] was determined as 9.31 µg/mL (≈ 24.1 µM); in the series on Hep 3B2 [6], 2.77 µg/mL (≈ 7.16 µM).
Regarding `COc1cccc2c1C(=O)c1c(O)c3c(c(O)c1C2=O)C[C@@](O)(C(=O)CO)C[C@@H]3O[C@H]1C[C@H](N)[C@H](O)[C@H](C)O1` [DOXORUBICIN], the 50% inhibitory concentration (IC50) in the series with Caco-2 is 24 nM; with Hep 3B2 [7], 25 nM; with HeLa [10] it was less than 10 nM; with MCF7 [11] it was 53 nM. The half-maximal inhibitory concentration (IC50) at 48 h in series [8] stood at 38 nM; in [9] it was 210 nM.
On to `O=c1[nH]cc(F)c(=O)[nH]1` [FLUOROURACIL], for which the IC50 with HepG2 was 4070 nM; in the series with Caco-2, 4750 nM; in the series on Hep 3B2 [7] it was 5110 nM; in the series on HeLa [10], 7790 nM; in the series on MCF7 [11] it was 6510 nM. For the same molecule, the concentration for half-maximal inhibition (IC50) at 48 h in series [8] was 4070 nM; in series [9], 178 nM.
As to `CC(C(=O)O)c1cccc(C(=O)c2ccccc2)c1` (stereo not drawn) [KETOPROFEN], the IC50 in series [12] amounted to 35 nM.

For orientation: IC50 means the concentration that inhibits the measured activity by half.

Values taken from ChEMBL document CHEMBL5523704, “Exploration of isoxazole analogs: Synthesis, COX inhibition, anticancer screening, 3D multicellular tumor spheroids, and molecular modeling” (Eur J Med Chem, 2024).
